Data reported in patent US20160090351A1, “INHIBITORS OF DEUBIQUITINATING PROTEASES” (BRANDEIS UNIVERSITY, priority 2013, published 2016).

Legend:
[1] = system: K562 cells; experiment: accumulation of K48- and K63-linked Ub in K562 cells; type: cell-based, human; conditions: for accumulation of K48-linked HMW-Ub: 50 μM, 2 h
Procedure: (§1) FIG. 34 depicts data showing that diphenylcarbonates cause the accumulation of HMW-Ub and reduce the levels of Bcr-Abl in K562 cells. A. K562 cells were treated with diphenyl carbonates (50 μM) for 2 h and then assayed for the accumulation of K48-linked Ub. B. As in A, but Bcr-Abl was measured by immunoblotting with anti-Abl antibodies. C. K562 cells were treated with C17 (50 μM) in the presence and absence of bortezomib (6 μM) for 4 hours and Bcr-Abl was measured by immunblotting with anti-Abl antibodies. D. Quantitation of blot in C. Significance: DMSO relative to C17 and bortezomib p=0.002; DMSO relative to C17, p=0.03. E. K562 cells were treated with C15 for 4 hours then analyzed for SMAD4 monoubiquitination by western blot. F. Quantitation of blots in A. (N=3). See also FIG. 40.
(§2) FIG. 40 depicts data showing that diphenyl carbonates induce the degradation of Bcr-Abl kinase. A. K562 cells were treated with C17 for 24 h (1 dose) then analyzed for Bcr-Abl expression by western blot with anti-Abl antibody. B. Quantitation of blots in A normalized to actin. C. K562 cells were treated with C17 for 24 h then the amount of cells in G1 and apoptosis were recorded (N=3). D. K562 were treated with C15 for 4 h then analyzed for Bcr-Abl expression using western blot. E. Quantitation of Bcr-Abl from D normalized to tubulin (N=4). F. Same K562 lysates were separately analyzed for K63-linked ubiquitin. G. Quantitation of blots in F (N=4). Differences between all bars is significant p<0.01). H. K562 cells were treated with C15 for 24 h after which time cells were fixed in ethanol, treated with propodium iodide/RNAse then analyzed by FACS. Viability was calculated using forward and side scatter. I. Same experiment as H but red fluorescence was measured to determine DNA content
(§3) Transfected cells were harvested 1.5 days post transfection. […] Typically clarified lysate was analyzed.

[2] = system: Bcr-Abl kinase; experiment: Bcr-Abl levels in K562 cells by immunoblotting; type: cell-based, human; conditions: for levels of Bcr-Abl: 50 μM, 2 h
Procedure: K562 cells are from a myelogenous leukemia line that expresses Bcr-Abl kinase. A. K562 cells were treated with TU50 for 24 hours after which time the cells were treated with annexin V-FITC and propidium iodide. Cells were then analyzed by flow cytometry. Cells showing only annexin V-FITC were considered apoptotic whereas cells showing both annexin V-FITC and propidium iodide were considered necrotic. N=2. All points show a significant difference to the vehicle (DMSO) with p<0.05. […] All points show a significant difference to vehicle (DMSO) with p<0.02. C. Same as A, but the incubation period was 8 hours. N>2. All points show a significant difference to DMSO with p<0.02. D, K562 cells were treated with TU50 for 4 hours. Samples were analyzed by SDS-PAGE and immunoblotting with anti-Bcr-Abl antibody. E. Quantitation of blot in D. The signal for tubulin was used to normalize the Bcr-Abl signal. N=3.
as §1, §2, §3

[3] = system: UCH-L5, UCH-L3, UCH-L1; experiment: HA-Ub-VS activity profiling in cell lysates, UCH-Ls; type: biochemical, human; conditions: for HA-Ub-VS labeling of UCHL enzymes: 75 μM, 30 minutes preincubation
Procedure: HA-ubiquitin vinylsulfone (HA-Ub-VS) irreversibly labels DUBs by modifying the catalytic cysteine residue Inhibition of the DUB prevents HA-Ub-VS labeling and the band is. […] The interaction with UCHL1/3 is reversible.
Lysate labeling assay on untransfected cells (1.5 mg/mL) was run with the stated concentration of inhibitor (or 1% DMSO control) for between 19-60 mins. After this time HA-Ub-VS (1.5-0.7 μM) was added and incubated for 19 mins. After this time reaction mixture (9 μL) was removed and quenched in 2× (final concentration) reducing loading buffer. For recovery experiments, a lysate of 6 mg/mL was treated with saturating compound C14 (250 μM) and incubated for 40 mins. Afterward, the lysate was diluted to 0.6 mg/mL (final concentration of inhibitor 25 μM) in lysis buffer (final volume 100 μL), then HA-Ub-VS was added. Aliquots (15 μL) were removed at the stated time (5-119 mins) and immediately quenched in 2× (final concentration) reducing loading buffer. For all HA-Ub-VS experiments samples in loading buffer were heated only to 37° C. prior to loading on a gel. This assay is highly susceptible to concentration of lysate and HA-Ub-VS. Cell experiments were carried out as above with some modifications. For Cos-1 and MCF-7 cells, after trypsinization, media with compound was added to give a final concentration of compound equal to that used in the assay. Cell pellets were lysed on an ice/salt bath with a temperature of −5° C. and lysate was centrifuged for only 5 mins.
HA-Ub-VS is an irreversible inhibitor of DUBs that is widely used in activity profiling. If the DUB inhibitors react to form a thiocarbonylated enzyme as proposed (FIG. 29B), then HA-Ub-VS labeling will be blocked. Treatment of HEK 293T lysates with HA-Ub-VS produced the characteristic pattern of protein bands at 250, 150-100, 45, 38 and 36 kDa, generally ascribed to USP9x (292 kDa), USP19 (146 kDa), USP7/8 (128 and 127 kDa, respectively), USP28/15 (122 and 112 kDa, respectively), UCH-L5 (38 kDa), UCH-L3 (26 kDa) and UCH-L1 (25 kDa) as depicted in FIG. 31.
The effect of diphenylcarbonates on HA-Ub-VS labeling was assessed to investigate the selectivity of DUB inhibition. Lysates were preincubated with diphenyl carbonates (75 μM), then treated with HA-Ub-VS (FIG. 31A). […] These C17 and C22-sensitive DUBs are most likely USP9x, USP19, USP7/8 and UCHL5, based on molecular weight (FIGS. 31B and 38). The identity of USP7 was confirmed by immunoblotting (FIG. 38F). […] Similar behavior was observed on Cos-1 cell lysates (FIG. 38B).

[4] = system: HEK 293T cells; experiment: accumulation of K48- and K63-linked Ub species in HEK 293T cells; type: cell-based, human; conditions: 50 μM, 2 h
Procedure: FIG. 32 depicts data showing that diphenyl carbonates inhibit DUBs in HEK 293T cells. A. Viability of HEK 293T cells assessed by the propidium iodide exclusion method: diphenyl carbonate (100 μM), bortezomib (V, 20 μM) and G5 (2 μM). N≧3, mean+/−s.d. B. HEK 293T cells were treated with the stated compounds (50 μM) for 2 h and then assayed for the accumulation of K48-linked Ub species. C. As in A, but K63-linked Ub was assayed. D. HEK 293T cells were treated with C14, C15, C17, C18 (100 μM) or DMSO for 2 hours, then harvested, lysed and treated with HA-Ub-VS. After 30 min, lysates were analyzed by SDS-PAGE and probed for HA, tubulin and actin. An intervening lane was removed for clarity. E. HEK 293T cells expressing Ub-G76V-GFP were treated with diphenyl carbonates (100 μM), bortezomib (20 μM) and G5 (2 μM). […] N>3, Mean+/−s.d. See also FIG. 39. […]

Row | SMILES | accumulation of K48-linked HMW-Ub [1] | levels of Bcr-Abl [2] | HA-Ub-VS labeling of UCHL enzymes ([3]; HEK 293T lysates) | accumulation of K48-linked HMW-Ub [4] | accumulation of K63-linked Ub chains [4] | accumulation of K63-linked ubiquitin ([1]; C15 4 h) | Bcr-Abl, dose response ([2]; C15 4 h) | inhibition of UCH-L1/3/5, dose response ([3]; below 50 μM) | HA-Ub-VS labeling of UCH-Ls ([3]; HEK 293T lysates, preincubation with G5)
1 | NCc1ccc(OC(=O)Oc2ccc(Cl)cc2)cc1 [Compound C14, 4-(aminomethyl)phenyl(4-chlorophenol)carbonate] | caused the accumulation of K48-linked HMW-Ub in K562 cells | caused a decrease in the levels of Bcr-Abl | relatively little effect on the UCHL enzymes | K48-linked HMW-Ub species accumulated | increase the accumulation of K63-linked Ub chains | – | – | – | –
2 | NCc1ccc(OC(=O)Oc2ccc(Br)cc2)cc1 [Compound C15, 4-(aminomethyl)phenyl(4-bromophenyl)carbonate] | caused the accumulation of K48-linked HMW-Ub in K562 cells | caused a decrease in the levels of Bcr-Abl | relatively little effect on the UCHL enzymes | K48-linked HMW-Ub species accumulated | increase the accumulation of K63-linked Ub chains | caused the accumulation of K63-linked ubiquitin | dose dependent decrease in Bcr-Abl | – | –
3 | NCc1ccc(OC(=O)Oc2ccc3ccccc3c2)cc1 [Compound C17] | caused the accumulation of K48-linked HMW-Ub in K562 cells | caused a decrease in the levels of Bcr-Abl | relatively little effect on the UCHL enzymes | K48-linked HMW-Ub species accumulated | increase the accumulation of K63-linked Ub chains | – | – | little inhibition of UCH-L1/3/5 was observed below 50 μM | –
4 | NCc1ccc(OC(=O)Oc2cccc3ccccc23)cc1 [Compound C18] | caused the accumulation of K48-linked HMW-Ub in K562 cells | caused a decrease in the levels of Bcr-Abl | relatively little effect on the UCHL enzymes | K48-linked HMW-Ub species accumulated | increase the accumulation of K63-linked Ub chains | – | – | – | –
5 | O=C1/C(=C/c2ccc([N+](=O)[O-])cc2)CS(=O)(=O)C/C1=C\c1ccc([N+](=O)[O-])cc1 [Compound G5, reference compound] | – | – | – | – | – | – | – | – | UCH-L1 but not UCH-L3
